Values joined by “and” are separate entries in the source; they are usually repeats but may differ in a detail not shown here. Identical values can stand only once. Like-named read-outs stand apart in the source and are kept apart here.
Legend:
HepG2 = experiment: In vitro cytotoxicity, IC50 by MTT method, HepG2; assay type: cell-based, human
Method: (§1) Culture medium powder RPMI1640 was dissolved in a proper amount of tri-distilled water according to the instruction of the product. […] It was the basic culture solution. The complete culture solution was added with FBS having a final concentration of 10%, 100 U/ml penicillin and 100 µg/ml streptomycin. The solution was fully stirred by a magnetic blender, and the pH of the solution was adjusted to 6.8-7.0. The volume was kept constant. After being filtered and disinfected, the solution was kept into several containers which were sealed and stored at 4° C.
(§2) The cells were placed in a culture dish followed by the addition of complete culture liquid RPMI1640 and then cultured in a incubator comprising 5% CO2 at 37° C. In the exponential growth phase, the cells grew vigorously. If the culture liquid became yellow, the liquid should be replaced instantly.
(§3) The cells, at a concentration of 10^5/ml, were inoculated at a 96-pore culture plate. In each pore, 100 μl cells were inoculated. The cells were placed in a CO2 incubator until the cells were in the logarithmic growth phase. The samples to be tested were added according to the preset concentration gradient. For each gradient, the test was conducted at least three times. An equivalent amount of solvent for dissolving the samples was added in the control group. After 48 h of culture, each pore was added 20 μl MTT (5 mg/ml). The cells were cultured at 37° C. for 4 h. After the supernatant was carefully removed, 100 μl DMSO was added in each pore. The plate was agitated for about 10 minutes such that the precipitates were dissolved. After that, OD value was identified with a Microplate Reader at the wavelength of 490 nm. The survival rate of the cells at various concentrations was calculated according to the following formula:
(§4) Survival rate %=average OD value of the sample group/average OD value of the control group×100%
(§5) Plots of log survival rate of the cells vs. concentration of the medicament were constructed, and the IC50 value of each sample was calculated according to graphing methods.

PLA-801 = experiment: In vitro cytotoxicity, IC50 by MTT method, PLA-801; assay type: cell-based
Method: as §1, §2, §3, §4, §5

Bel-7402 = experiment: In vitro cytotoxicity, IC50 by MTT method, Bel-7402; assay type: cell-based
Method: as §1, §2, §3, §4, §5

BGC-823 = experiment: In vitro cytotoxicity, IC50 by MTT method, BGC-823; assay type: cell-based
Method: as §1, §2, §3, §4, §5

Hela = experiment: In vitro cytotoxicity, IC50 by MTT method, Hela; assay type: cell-based
Method: as §1, §2, §3, §4, §5

Lovo = experiment: In vitro cytotoxicity, IC50 by MTT method, Lovo; assay type: cell-based
Method: as §1, §2, §3, §4, §5

NIH3T3 = experiment: In vitro cytotoxicity, IC50 by MTT method, NIH3T3; assay type: cell-based
Method: as §1, §2, §3, §4, §5

Lewis lung cancer = settings: Lewis lung cancer, listed as CTX;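 note: mice implanted subcutaneously in the axilla with Lewis lung tumor cells, treated starting the following day, killed roughly three weeks after implantation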
S180 sarcoma = settings: S180 sarcoma, Dosage 30 (mg/ml), ip × 7qd, listed as CTX
[1] = HepG2 cell strain, read-out: IC50 HepG2
[2] = PLA-801 cell strain, read-out: IC50 PLA-801
[3] = Bel7402 cell strain, read-out: IC50 Bel7402
[4] = BGC823 cell strain, read-out: IC50 BGC823
[5] = Hela cell strain, read-out: IC50 Hela
[6] = Lovo cell strain, read-out: IC50 Lovo
[7] = NIH3T3 cell strain, read-out: IC50 NIH3T3

Structure (SMILES)	IC50 (HepG2; [1])	IC50 (PLA-801; [2])	IC50 (Bel-7402; [3])	IC50 (BGC-823; [4])	IC50 (Hela; [5])	IC50 (Lovo; [6])	IC50 (NIH3T3; [7])	further results
Nc1cc2c(cn1)[nH]c1ccccc12 [Compound 21, 3-amino-β-carboline]								IC50 (HepG2; Homo sapiens, HepG2, MTT, read-out: IC50): 340 µM; IC50 (PLA-801; PLA-801, MTT, read-out: IC50): 570 µM; IC50 (Bel-7402; Homo sapiens, Bel-7402, BeI7402, MTT, read-out: IC50): 1570 µM; IC50 (BGC-823; Homo sapiens, BGC-823, BGC823, MTT, read-out: IC50): 860 µM; IC50 (Hela; Homo sapiens, Hela, MTT, read-out: IC50): 310 µM; IC50 (Lovo; Homo sapiens, Lovo, MTT, read-out: IC50): 240 µM; IC50 (NIH3T3; Mus musculus, NIH3T3, MTT, read-out: IC50): 290 µM
CCOC(=O)c1cc2c3ccccc3n(Cc3c(F)c(F)c(F)c(F)c3F)c2cn1 [Compound 46, ethyl 9-(2′,3′,4′,5′,6′-pentafluoro)benzyl-β-carboline-3-carboxylate]	120 µM	50 µM	10 µM	50 µM	980 µM	40 µM	60 µM	
CCOC(=O)c1cc2c3ccccc3n(CC(=O)c3ccccc3)c2cn1 [Compound 47, ethyl 9-acetophenone-β-carboline-3-carboxylate]	> 3000 µM	> 3000 µM	1020 µM	> 3000 µM	> 3000 µM	> 3000 µM	> 3000 µM	
CCn1c2ccccc2c2cc(C(=O)NN)ncc21 [Compound 51, 3-carbohydrazine 9-ethyl-β-carboline]	260 µM	510 µM	370 µM	110 µM	240 µM	190 µM	510 µM	
NNC(=O)c1cc2c3ccccc3n(Cc3ccccc3)c2cn1 [Compound 52, 3-carbohydrazide-9-benzyl-β-carboline]	140 µM	520 µM	60 µM	270 µM	250 µM	250 µM	220 µM	
CCOC(=O)c1cc2c3ccccc3n(CC(=O)c3ccccc3)c2c(C)n1 [Compound 61, ethyl 9-acetophenone-1-methyl-β-carboline-3-carboxylate]	70 µM	160 µM	460 µM	90 µM	60 µM	50 µM	90 µM	
CCCc1nc(C(=O)O)cc2c3ccccc3n(CCCc3ccccc3)c12 [Compound 75, 9-phenylpropyl-1-propyl-β-carboline-3-carboxylic acid]		230 µM						IC50 (HepG2; Homo sapiens, HepG2 cell strain, read-out: IC50 HepG2): 130 µM; IC50 (Bel-7402; Homo sapiens, Bel-7402, Bel7402 cell strain, read-out: IC50 Bel7402): 200 µM; IC50 (BGC-823; Homo sapiens, BGC-823, BGC823 cell strain, read-out: IC50 BGC823): 240 µM; IC50 (Hela; Homo sapiens, Hela cell strain, read-out: IC50 Hela): 140 µM; IC50 (Lovo; Homo sapiens, Lovo cell strain, read-out: IC50 Lovo): 80 µM; IC50 (NIH3T3; Mus musculus, NIH3T3 cell strain, read-out: IC50 NIH3T3): 110 µM
CCOC(=O)c1cc2c3ccccc3n(Cc3ccccc3)c2c[n+]1Cc1ccccc1.[O-][I+2]([O-])[O-] [Compound 85, 2,9-dibenzyl-3-ethoxycarbonyl-β-carbolinium iodate]	20 µM	30 µM	40 µM	40 µM	30 µM	30 µM	20 µM	
O=P1(N(CCCl)CCCl)NCCCO1 (centres unmarked) [cyclophosphamide, reference compound]								Body weight of the animals, end, First time (Lewis lung cancer; Dosage 30 (mg/ml), Iv × 7qd, first time): 21.3 g and 20.2 g; Body weight of the animals, end, Second time (Lewis lung cancer; Dosage 30 (mg/ml), Iv × 7qd, second time): 21.3 g and 21.0 g; Body weight of the animals, beginning, First time (Lewis lung cancer; Dosage 30, Iv × 7qd, first time): 20.1 g and 18.8 g; Body weight of the animals, beginning, Second time (Lewis lung cancer; Dosage 30, Iv × 7qd, second time): 18.9 g and 19.8 g; Body weight of the animals, beginning, First time (S180 sarcoma; first time): 19.4 g and 18.7 g; Body weight of the animals, end, First time (S180 sarcoma; first time): 20.9 g and 22.3 g; Weight of the tumor X ± SD, First time (S180 sarcoma; first time): 0.33 ± 0.14 g and 0.33 ± 0.12 g; Body weight of the animals, beginning, Second time (S180 sarcoma; second time): 19.8 g and 20.3 g; Body weight of the animals, end, Second time (S180 sarcoma; second time): 23.2 g and 20.9 g

Reference: patent US20090227619A1, “Harmine derivatives, intermediates used in their preparations, preparation processes and use therefo” (priority 2003, published 2009)
